Results as given in patent US10959961B2, “Methods of administering anionic cannabinoid molecules dissolved in water” (priority 2018, dated 2021).
Several values for one entry are separate records, joined by “and”; a condition that tells them apart may be missing. Identical values can stand only once.

Key:
[1] = Color of phenolate in carbonate/bicarbonate buffer at variable pH (Example 19); assay type: physicochemical; conditions: approximately 1 gram-per-liter
Protocol: 1 gram of cannabidiol was dissolved in 6.6 milliliters of 0.5 molar potassium hydroxide in ethanol to produce 2-[(1R,6R)-6-isopropenyl-3-methylcyclohex-2-en-1-yl]-3-hydroxy-5-pentylphenolate. The solution was then diluted with 100 millimolar sodium carbonate in water to a final volume of 50 milliliters to produce a solution comprising 2-[(1R,6R)-6-isopropenyl-3-methylcyclohex-2-en-1-yl]-3-hydroxy-5-pentylphenolate at approximately 20-grams-per-liter. 0.5 milliliters of the 2-[(1R,6R)-6-isopropenyl-3-methylcyclohex-2-en-1-yl]-3-hydroxy-5-pentylphenolate solution was added to each of 25 test tubes containing 9.5 milliliters of 100 millimolar (0.1 M) carbonate/bicarbonate (CO3^2−/HCO3^−) buffer according to Table 1. Each test tube contained approximately 10 milligrams of 2-[(1R,6R)-6-isopropenyl-3-methylcyclohex-2-en-1-yl]-3-hydroxy-5-pentylphenolate at a concentration of approximately 1 gram-per-liter. pH's were confirmed by multiple different measurements.
It was expected that 2-[(1R,6R)-6-isopropenyl-3-methylcyclohex-2-en-1-yl]-3-hydroxy-5-pentylphenolate would reform cannabidiol at pH's below a threshold pH as evidenced by an expected color change from purple (indicative of 2-[(1R,6R)-6-isopropenyl-3-methylcyclohex-2-en-1-yl]-3-hydroxy-5-pentylphenolate) to colorless (indicative of cannabidiol).

[2] = Third-party HPLC cannabinoid profile of olive oil extract of the aqueous solution (Example 24); assay type: physicochemical
Protocol: Pure cannabidiol was deprotonated and dissolved in water using a strategy similar to those described in Examples 16 and 19. Acetic acid was then added to 100 milliliters of the water, dropwise, until the purple color disappeared to reform cannabidiol. Reprotonated cannabidiol was extracted from the water using 4 milliliters of olive oil. Two 1 milliliter samples of the olive oil were sent to Botanacor Laboratories (Boulder, Colo.) for cannabinoid profile analysis using an Agilent Technologies (Santa Clara, Calif.) High Performance Liquid Chromatography instrument with a diode array detector. Botanacor Laboratories is ISO/IEC 17025 accredited for cannabinoid potency determination.

[3] = Removal of ethanol in a vacuum oven up to 157° C. (Example 15); assay type: physicochemical; conditions: oven under vacuum, ramped to 157° C.; purple taffy-like product
Protocol: 372 grams of crude industrial hemp extract containing approximately 65% cannabidiol was dissolved in ethanol at a weight ratio of 1:2 crude to ethanol. 43.2 grams of potassium hydroxide was slowly added to the hemp extract in ethanol, and the solution was stirred while heating at 55° C. The solution was then placed in an oven under vacuum and slowly ramped to a temperature of 157° C. over the course of approximately 1 hour, at which time heating was discontinued. The solution was then left in the oven under vacuum overnight.
The product produced by ethanol removal in an oven under vacuum was purple with a taffy-like consistency indicative of polymer formation. The product lacked appreciable solubility in water.

[4] = Commercial viability of beverages: phenolate solution added to bottled water (Example 21); assay type: physicochemical
Protocol: 20 milliliters of water was removed from a 1 liter bottle of ESSENTIA® OVERACHIEVING H2O®. ESSENTIA® OVERACHIEVING H2O® contains purified water, sodium bicarbonate, dipotassium phosphate, magnesium sulfate, and calcium chloride, and its pH was determined to be about 9.5. The 20 milliliters of removed water was replaced with 20 milliliters of the 20 gram-per-liter solution of 2-[(1R,6R)-6-isopropenyl-3-methylcyclohex-2-en-1-yl]-3-hydroxy-5-pentylphenolate, which is described in Example 19, and the bottle was sealed using the screw-cap top of the bottle to produce a sealed container containing approximately 400 milligrams of 2-[(1R,6R)-6-isopropenyl-3-methylcyclohex-2-en-1-yl]-3-hydroxy-5-pentylphenolate. The pH of the liquid was measured and determined to be about 10.
5 milliliters of water was removed from a 500 milliliter bottle of DASANI® purified water. DANSANI® purified water contains purified water, magnesium sulfate, potassium chloride, and sodium chloride, and its pH was determined to be about 7.0. The 5 milliliters of removed water was replaced with 5 milliliters of the 20 gram-per-liter solution of 2-[(1R,6R)-6-isopropenyl-3-methylcyclohex-2-en-1-yl]-3-hydroxy-5-pentylphenolate, which is described in Example 19, and the bottle was sealed using the screw-cap top of the bottle to produce a sealed container containing approximately 100 milligrams of 2-[(1R,6R)-6-isopropenyl-3-methylcyclohex-2-en-1-yl]-3-hydroxy-5-pentylphenolate. The pH of the liquid was measured and determined to be about 9.5.
0.5 milliliters of water was removed from a 500 milliliter bottle of DASANI® purified water. […] The pH of the liquid was measured and determined to be about 8.5.

[5] = tested on: healthy, consenting adults; assay: Qualitative assessment of pharmacokinetics in humans, oral self-administration (Example 23); assay type: in vivo, human
Protocol: Approximately 60 milligrams of 2-[(1R,6R)-6-isopropenyl-3-methylcyclohex-2-en-1-yl]-3-hydroxy-5-pentylphenolate prepared from crude industrial hemp extract was dissolved in water as described in Example 16, buffered to a pH of 9.1, and added to a 296 milliliter bottle of DASANI® purified water. […] A healthy, consenting adult self-administered the entire bottle of 60 milligrams of 2-[(1R,6R)-6-isopropenyl-3-methylcyclohex-2-en-1-yl]-3-hydroxy-5-pentylphenolate in water orally over 5 to 10 minutes. […] The individual described the psychoactive effect as a pleasant sensation accompanied by both an enhanced ability to focus and elevated alertness.
Approximately 30 milligrams of 2-[(1R,6R)-6-isopropenyl-3-methylcyclohex-2-en-1-yl]-3-hydroxy-5-pentylphenolate prepared from crude industrial hemp extract was dissolved in water, buffered to a pH of 9.1, and added to each of four 296 milliliter bottles of DASANI® purified water. […] Four healthy, consenting adults orally self-administered varying amounts of the four solutions over 5 to 10 minutes.

[6] = Dissolving salts of the phenolate in water (Examples 14 and 17); assay type: physicochemical; conditions: salt from 1.4 grams cannabidiol, dried under vacuum; 90 milliliters
Protocol: 1.4 grams of pure cannabidiol was dissolved in 10 milliliters of 0.5 molar potassium hydroxide in ethanol to convert the cannabidiol into 2-[(1R,6R)-6-isopropenyl-3-methylcyclohex-2-en-1-yl]-3-hydroxy-5-pentylphenolate. A potassium salt of 2-[(1R,6R)-6-isopropenyl-3-methylcyclohex-2-en-1-yl]-3-hydroxy-5-pentylphenolate was formed by drying the ethanol solution under vacuum overnight. 90 milliliters of 100 millimolar aqueous sodium carbonate was added to the potassium salt of 2-[(1R,6R)-6-isopropenyl-3-methylcyclohex-2-en-1-yl]-3-hydroxy-5-pentylphenolate.
This example describes a successful attempt to produce a salt of 2-[(1R,6R)-6-isopropenyl-3-methylcyclohex-2-en-1-yl]-3-hydroxy-5-pentylphenolate that readily dissolves in water. A first aliquot from Example 16 was lyophilized to produce salts including a potassium 2-[(1R,6R)-6-isopropenyl-3-methylcyclohex-2-en-1-yl]-3-hydroxy-5-pentylphenolate salt and a sodium 2-[(1R,6R)-6-isopropenyl-3-methylcyclohex-2-en-1-yl]-3-hydroxy-5-pentylphenolate salt. […] The water was centrifuged to remove undissolved salt and to produce an aqueous solution of 2-[(1R,6R)-6-isopropenyl-3-methylcyclohex-2-en-1-yl]-3-hydroxy-5-pentylphenolate concentrate for inclusion in beverages.

[7] = Approximate pKa of cannabidiol by color at varying sodium bicarbonate (Example 20); assay type: physicochemical; conditions: from color change at pH 8.0 and 8.3, read-out: pKa of cannabidiol in dilute aqueous solution
Protocol: This example confirms that 2-[(1R,6R)-6-isopropenyl-3-methylcyclohex-2-en-1-yl]-3-hydroxy-5-pentylphenolate is viable for inclusion in beverages formulated for human consumption. 0.5 milliliters of the 20 gram-per-liter solution of 2-[(1R,6R)-6-isopropenyl-3-methylcyclohex-2-en-1-yl]-3-hydroxy-5-pentylphenolate described in Example 19 was diluted with 9.5 milliliters of distilled water comprising varying concentrations of sodium bicarbonate, and color was monitored as shown in Table 2. pH's were confirmed by multiple different measurements.
A color change was visually apparent at a pH of 8.0, and a subtle color change was visually apparent at pH of 8.3.

[8] = Adjusting the pH of the phenolate emulsion to 9.1 with sodium bicarbonate (Examples 7 and 8); assay type: physicochemical; conditions: emulsion adjusted to pH 9.1, color change and lipid phase separation
Protocol: 1.65 grams of carbon-filtered industrial hemp extract comprising approximately 65% cannabidiol was dissolved in 10 milliliters of 420 millimolar potassium hydroxide in ethanol to convert the cannabidiol into 2-[(1R,6R)-6-isopropenyl-3-methylcyclohex-2-en-1-yl]-3-hydroxy-5-pentylphenolate.
1 gram of cannabidiol isolate was dissolved in 10 milliliters of 380 millimolar potassium hydroxide in ethanol to convert the cannabidiol into 2-[(1R,6R)-6-isopropenyl-3-methylcyclohex-2-en-1-yl]-3-hydroxy-5-pentylphenolate.

[9] = approximately 60 milligrams in 296 mL water, pH 9.1, oral over 5 to 10 minutes, one adult

C=C(C)[C@@H]1CCC(C)=C[C@H]1c1c(O)cc(CCCCC)cc1O [2-[(1R,6R)-6-isopropenyl-3-methylcyclohex-2-en-1-yl]-3-hydroxy-5-pentylphenolate]
color change from purple to colorless ([1]; pH's of 9.1 and above, 0.1 M carbonate/bicarbonate buffer): No color change
concentration dissolved in water ([2]; worked out from the olive oil samples): about 78 milligrams per liter
stability at high temperatures [3]: unstable at high temperatures
appearance of the liquid ([4]; approximately 10 milligrams in 500 milliliter DASANI water, pH about 8.5): transparent and lacked discernable color
appearance of the liquid ([4]; approximately 100 milligrams in 500 milliliter DASANI water, pH about 9.5): transparent and purple
appearance of the liquid ([4]; approximately 400 milligrams in 1 liter ESSENTIA water, pH about 10): purple and transparent
onset of a perceptible psychoactive effect [5, 9]: within minutes of ingestion
time of marked perceptible psychoactive effect following ingestion [5, 9]: approximately 30 minutes
individuals reporting rapid onset of a perceptible psychoactive effect within minutes of ingestion ([5]; approximately 100 milligrams per liter, pH 9.1, varying amounts, oral over 5 to 10 minutes, four adults): Three of the four individuals
time to psychoactive effects after ingestion ([5]; dissolved in water, orally administered): less than 5 minutes

C=C(C)[C@@H]1CCC(C)=C[C@H]1c1c([O-])cc(CCCCC)cc1O.[K+] [potassium salt of 2-[(1R,6R)-6-isopropenyl-3-methylcyclohex-2-en-1-yl]-3-hydroxy-5-pentylphenolate]
dissolution in 100 millimolar aqueous sodium carbonate [6]: the majority of the salt remained in the solid phase

C=C(C)[C@@H]1CCC(C)=C[C@H]1c1c(O)cc(CCCCC)cc1O [cannabidiol, 2-[(1R,6R)-6-isopropenyl-3-methylcyclohex-2-en-1-yl]-5-pentylbenzene-1,3-diol]
pKa ([1]; Example 19, dilute aqueous solutions, read-out: pKa of cannabidiol): < 9.1
pKa [7]: 8 to 8.5
other cannabinoids in the olive oil samples ([2]; HPLC with diode array detector): did not detect any other cannabinoid
cannabidiol content of olive oil samples ([2]; reprotonated with acetic acid, 100 mL water extracted with 4 mL olive oil, two samples, HPLC): 0.18 % by weight and 0.21 % by weight
pKa ([8]; Example 7, from carbon-filtered industrial hemp extract, read-out: pKa of cannabidiol in water): > 9.1
pKa of cannabidiol in water ([8]; Example 8, from cannabidiol isolate): greater than 9.1
